Measured values reported in patent publication US8278349B2, “Cancer treatment using FTS and 2-deoxyglucose” (Ramot at Tel-Aviv University Ltd., priority 2005, dated 2012).

Legend:
[1] = system: primary pancreatic tumor cell line pp161; assay: Cell number from phase contrast images, pp161; format: cell-based
Description: (§1) All materials for cell culture and determination of cell growth and death were detailed in earlier publications. [Blum, R., Jacob-Hirsch, J., Amariglio, N., Rechavi, G. and Kloog, Y., Cancer Res 65:999-1006 (2005); Yaari, S., Jacob-Hirsch, J., Amariglio, N., Haklai, R., Rechavi, G. and Kloog, Y., Clin Cancer Res 11:4321-30 (2005)]. FTS was provided by Concordia Pharmaceuticals, Inc. 2DG was purchased from Sigma (cat #D3179). Cells were maintained in DMEM/10% FCS at a constant temperature of 37° C. in a humidified atmosphere of 95% air/5% CO2. Cells were plated in 1 ml DMEM/5% FCS at a density of 10,000 in 24 wells plates, and treated 24 hours (h) later with 50 μM or 75 μM FTS or with the vehicle (0.1% Me2SO). […] Following incubation for 24 or 48 h, as specified in each experiment, the cells were stained with Hoechst 33258 (1 μg/mL) to determine the extent of cell death; the cells were incubated with the reagent for 5 min and stained nuclei were visualized by a fluorescence microscope. […]
(§2) All experiments were performed and repeated at least four times. Data were collected by imaging each well then analyzed as follows: the total number of cells was calculated of the phase contrast images and the number of dead cells was calculated of the fluorescence images. The percentage of Hoechst stained dead cells ([dead cells/total number of cells]×100) was calculated and presented as means±SD.

[2] = system: primary pancreatic tumor cell line pp 78; assay: Cell death by Hoechst 33258 staining, pp 78; format: cell-based; conditions: single-drug or combined treatment
Description: (§3) All materials for cell culture and determination of cell growth and death were detailed in earlier publications. [Blum, R., Jacob-[…]. and Kloog, Y., Cancer Res 65:999-1006 (2005); […]., Jacob-[…]. and Kloog, Y., Clin Cancer Res 11:4321-30 (2005)]. FTS was provided by Concordia Pharmaceuticals, Inc. 2DG was purchased from Sigma (cat #D3179). Cells were maintained in DMEM/10% FCS at a constant temperature of 37° C. in a humidified atmosphere of 95% air/5% CO2. Cells were plated in 1 ml DMEM/5% FCS at a density of 10,000 in 24 wells plates, and treated 24 hours (h) later with 50 μM or 75 μM FTS or with the vehicle (0.1% Me2SO). Forty-eight (48) h later the medium was replaced by a medium containing either 10 mM glucose or 5 mM glucose plus 5 mM 2DG. […] Following incubation for 24 or 48 h, as specified in each experiment, the cells were stained with Hoechst 33258 (1 μg/mL) to determine the extent of cell death; the cells were incubated with the reagent for 5 min and stained nuclei were visualized by a fluorescence microscope. […] Data were collected by imaging each well then analyzed as follows: the total number of cells was calculated of the phase contrast images and the number of dead cells was calculated of the fluorescence images. The percentage of Hoechst stained dead cells ([dead cells/total number of cells]×100) was calculated and presented as means±SD.

[3] = system: primary pancreatic tumor cell line pp161; assay: Cell death by Hoechst 33258 staining, pp161; format: cell-based; conditions: single-drug or combined treatment
Description: as §3

[4] = system: primary pancreatic tumor cell line pp109; assay: Cell number from phase contrast images, pp109; format: cell-based
Description: as §1, §2

[5] = system: human glioblastoma cell line U87; assay: Cell number from phase contrast images, U87; format: cell-based; conditions: single or combined treatment
Description: as §3

[6] = system: human glioblastoma cell line U373; assay: Cell number from phase contrast images, U373; format: cell-based; conditions: single or combined treatment
Description: as §3

[7] = system: primary pancreatic tumor cell line pp 78; assay: Cell number from phase contrast images, pp 78; format: cell-based
Description: as §1, §2

[8] = system: pancreatic carcinoma cell line panc-1; assay: Cell death by Hoechst 33258 staining, panc-1; format: cell-based; conditions: for percentage of dead cells: panc-1
Description: All materials for cell culture and determination of cell growth and death were detailed in earlier publications. [Blum, R., Jacob-[…]. and Kloog, Y., Cancer Res 65:999-1006 (2005); […]., Jacob-[…]. and Kloog, Y., Clin Cancer Res 11:4321-30 (2005)]. FTS was provided by Concordia Pharmaceuticals, Inc. 2DG was purchased from Sigma (cat #D3179). Cells were maintained in DMEM/10% FCS at a constant temperature of 37° C. in a humidified atmosphere of 95% air/5% CO2. Cells were plated in 1 ml DMEM/5% FCS at a density of 10,000 in 24 wells plates, and treated 24 hours (h) later with 50 μM or 75 μM FTS or with the vehicle (0.1% Me2SO). Forty-eight (48) h later the medium was replaced by a medium containing either 10 mM glucose or 5 mM glucose plus 5 mM 2DG. The FTS treated groups were replenished with the drug and the controls with 0.1% Me2SO. Following incubation for 24 or 48 h, as specified in each experiment, the cells were stained with Hoechst 33258 (1 μg/mL) to determine the extent of cell death; the cells were incubated with the reagent for 5 min and stained nuclei were visualized by a fluorescence microscope. Additionally, phase contrast images were taken. All experiments were performed and repeated at least four times. Data were collected by imaging each well then analyzed as follows: the total number of cells was calculated of the phase contrast images and the number of dead cells was calculated of the fluorescence images. The percentage of Hoechst stained dead cells ([dead cells/total number of cells]×100) was calculated and presented as means±SD.

[9] = system: human glioblastoma cell line U373; assay: Cell death by Hoechst 33258 staining, U373; format: cell-based; conditions: single or combined treatment
Description: as §3

[10] = system: pancreatic carcinoma cell line panc-1; assay: Cell number from phase contrast images, panc-1; format: cell-based
Description: as §1, §2

[11] = system: human glioblastoma cell line U87; assay: Cell death by Hoechst 33258 staining, U87; format: cell-based; conditions: single or combined treatment
Description: as §3

[12] = system: primary pancreatic tumor cell line pp109; assay: Cell death by Hoechst 33258 staining, pp109; format: cell-based; conditions: single-drug or combined treatment
Description: as §3

[13] = system: panc-1 cells; conditions: cited from earlier work
[14] = system: GBM cells; conditions: reported (Blum 2005; Yaari 2005); cited from earlier work
[15] = system: Mia Paca cells; conditions: cited from earlier work
[16] = previously shown (Kloog and Cox 2000)

**Q.** What does the source list for `OCC1OC(O)CC(O)C1O` [2DG, 2-deoxy-D-glucose, reference compound]?
**A.** decrease in cell number ([1]; 2DG alone, compared with FTS): decrease in cell number, but to a lower extent; cell death above the levels observed in the controls [2]: did not cause a significant increase in death; cell death above the levels observed in the controls [3]: did not cause a significant increase in death; decrease in cell number ([4]; 2DG alone, compared with FTS): decrease in cell number, but to a lower extent; total cell number [5]: induced a decrease in total cell number; total cell number [6]: induced a decrease in total cell number; decrease in cell number ([7]; 2DG alone, compared with FTS): decrease in cell number, but to a lower extent; cell survival ([8]; 2DG (5 mM) combined with equimolar glucose, cell death similar to controls (3%)): did not affect cell survival; percentage of dead cells ([8]; 2DG alone (5 mM glucose plus 5 mM 2DG)): 3%; cell death [9]: no significant increase in cell death; decrease in cell number ([10]; 2DG alone, compared with FTS): decrease in cell number, but to a lower extent; cell death [11]: no significant increase in cell death; cell death above the levels observed in the controls [12]: induced death

**Q.** Which “decrease in the total number of cells” value ([1]; 75 μM FTS alone) does the source give for `CC(C)=CCC/C(C)=C/CC/C(C)=C/CSc1ccccc1C(=O)O` [FTS, farnesylthiosalicylic acid] here?
**A.** ~2 fold

**Q.** What about the “cell death above the levels observed in the controls” value (“cell death above the levels observed” below) [2] of the same compound?
**A.** did not cause a significant increase in death

**Q.** And the “cell death above the levels observed” value [3]?
**A.** did not cause a significant increase in death

**Q.** And the “decrease in the total number of cells” value ([4]; 75 μM FTS alone)?
**A.** ~2 fold

**Q.** What about the cell death ([13]; FTS alone) of the same compound?
**A.** did not induce death

**Q.** What about the “anchorage-dependent and anchorage-independent growth” value [13, 16] of the same compound?
**A.** inhibit anchorage-dependent and anchorage-independent growth

**Q.** What about the “growth arrest and cell death” value [14] of the same compound?
**A.** induce both growth arrest and cell death

**Q.** And the total cell number [5]?
**A.** induced a decrease in total cell number

**Q.** And the total cell number [6]?
**A.** induced a decrease in total cell number

**Q.** And the “decrease in the total number of cells” value ([7]; 75 μM FTS alone)?
**A.** ~2 fold

**Q.** What about the “percentage of dead cells” value ([8]; 50 μM FTS alone (10 mM glucose)) of the same compound?
**A.** 4%

**Q.** And the “percentage of dead cells” value ([8]; 75 μM FTS alone (10 mM glucose))?
**A.** 7%

**Q.** What about the cell death ([15]; FTS alone) of the same compound?
**A.** did not induce death

**Q.** What about the “anchorage-dependent and anchorage-independent growth” value [15, 16] of the same compound?
**A.** inhibit anchorage-dependent and anchorage-independent growth

**Q.** What about the cell death [9] of the same compound?
**A.** no significant increase in cell death

**Q.** What about the “decrease in cell number” value ([10]; 75 μM FTS alone) of the same compound?
**A.** ~2 fold

**Q.** And the cell death [11]?
**A.** no significant increase in cell death

**Q.** What about the “cell death above the levels observed” value [12] of the same compound?
**A.** induced death
